Results on one compound are retold here after patent publication US12291513B2, “Pyridinium derivatives made by hydrothermal synthesis for use as anolytes in electrochemical cells” (Wisconsin Alumni Research Foundation, priority 2021, dated 2025).

Data set [1] in a line: Solubility in pure water. Particulars: pure water, 18 °C, water, thermodynamic from solid. In kind it is physicochemical. Here is the method: A measured amount of Dex-Vi was partially dissolved in pure water. The solution was then centrifuged. The supernatant was decanted, and the volume was measured. The remainder of the solid was dried in a vacuum oven and weighed. Finally, the weight of the remaining Dex-Vi was subtracted from the initial added mass to obtain the amount dissolved in the supernatant, permitting calculation of the maximum soluble concentration.

Data set [2] is described as follows: Viscosity (rheometer). In kind it is physicochemical. The following applies: for viscosity: pure water. Here is the method: Viscosity measurements were carried out using an Ares G2 rheometer (TA Instruments) with an advanced Peltier system at 25° C.
Data set [3] is described as follows: Membrane permeability in H-cell. In kind it is physicochemical. The following applies: Selemion DSV membrane. Here is the method:
0.33 M Dex-Vi in pure water was separated by an anion-exchange membrane (DSV) from 1 M NaCl in an H-cell. […] The cell was agitated on a shaker to partially simulate flow dynamics. Aliquots of the receiving end (1 M NaCl side) were taken every few days, and the removed volume was replaced with 1 M NaCl. The concentration of Dex-Vi in the aliquot was determined by measuring the absorbance at 285 nm using a UV-Vis spectrophotometer. The concentration as a function of time data was then used to calculate the permeability constant of Dex-Vi. (Kwabi, D. G. et al., Joule 2018, 2, 1894-1906)
Permeability was calculated using Eqn. 4 which follows Fick's Law, where P is the permeability in cm^2·s^−1, A is the membrane area in cm^2, t is elapsed time in seconds, Ct is the concentration (mol·cm^−3) of Dex-Vi on the receiving side at time t, C0 is the initial concentration of Dex-Vi on the donating side, Vo is the volume of one side of the H-cell, and l is the membrane thickness in cm.

A short description of data set [4]: Degradation in 1M KOH. In kind it is physicochemical.
A short description of data set [5]: Symmetric, volumetrically-unbalanced flow cell cycling. The following applies: sixteen days (150 cycles) continuous charge-discharge, N2 glovebox, first redox process. The protocol:
The RFB measurements were carried out in a custom-made zero-gap device previously reported by Li et al. (Li, W. et al., Chem 2018, 4 (11), 2644-2657; and Li, W. et al., Adv. Energy Mater. 2019, 9 (31), 1900918.) Both symmetric flow cell and RFB full cell measurements were conducted using a Bio-Logic SP-200 potentiostat at room temperature (˜20° C.). In symmetric cells, 0.1 M of active species in 1 M NaCl (pre-charged to 50% SOC of the first electron reduction using FcNCl as the counter cathode in bulk electrolysis) was utilized on both sides with the capacity limiting side (CLS) consisting of 5 mL of solution and the non-capacity limiting side (NCLS) consisting of 10 mL of solution separated by a Selemion AMV anion-exchange membrane (Asahi Glass Co.). The neat Dex-Vi full RFB cell cycling was performed using the product from the Dex-Vi synthesis directly without any purification. The neat product was diluted to roughly 0.1 M to pair with a 0.2 M BTMAP-Fc counter catholyte in excess capacity separated by an AMV membrane. Both the anolyte and catholyte were 5 mL in total volume with 0.5 M NaCl supporting electrolyte. […]

Data set [6] can be described thus: Degradation kinetics in sodium hydroxide. Particulars: one-and-one-half order overall.
Excerpt: The chemical stability of the first redox processes of Dex-Vi was investigated using a symmetric, volumetrically-unbalanced flow cell inside an N2 glovebox.

Like-named read-outs stand apart in the source and are kept apart here.

As usually defined, the solubility is how much of the substance goes into solution per volume. Broadly, the viscosity is the resistance of a fluid to flow. Lower therefore signals a thin fluid. `C[N+](C)(C)CC(O)C[n+]1ccc(-c2cc[n+](CC(O)C[N+](C)(C)C)cc2)cc1` (centres unmarked) [Dex-Vi, bis(3-trimethylammonio-2-hydroxy)propyl viologen tetrachloride]: the solubility is 1800 mM in data set [1] (Example 2, read-out: Water Solubility) and approximately 2000 mM in data set [1] (room temperature (~18° C.), read-out: maximum solubility). Also, the “Viscosity at 1M, 25° C.” value in data set [2] (1M, 25° C.) is 14.2 cP. In addition, the viscosity in data set [2] (0.25 M) is listed as 1.1 cP; in data set [2] (0.50 M) it was 1.8 cP; in data set [2] (1.0 M), 4.7 cP; in data set [2] (1.5 M), 50 cP. In addition, the permeance in data set [3] is 2.3×10^−11 cm^2·s^−1. Also, the “Degradation in 1M KOH, k” value in data set [4] is 3.22e-06 s⁻¹. Further, in data set [5], the “decay in symmetric flow cell” value is listed as “no decay”. Further, the “degradation rate constant k” value in data set [6] was 2.3×10^−6 s^−1·M^−1/2.
